Measured values published in ChEMBL document CHEMBL1201862, “PubChem BioAssay data set” (2004).
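96-well plates; 48 h exposure; 5 concentrations. Endpoints by linear interpolation between flanking doses. Not reached: highest tested concentration assigned. At the GI50, growth is halved.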 The source made the active and inactive calls. No stated cut-off is given here; in the data, active = GI50 up to about 1.1 µM and inactive = higher.

What was measured:
Assay in all cases: NCI-60 cell line screen, 48 h
RPMI-8226 = test system: RPMI-8226
786-0 = test system: 786-0
SK-MEL-2 = test system: SK-MEL-2
NCI-H460 = test system: NCI-H460
SK-OV-3 = test system: SK-OV-3
ACHN = test system: ACHN
HCT-116 = test system: HCT-116
SN12C = test system: SN12C
UACC-62 = test system: UACC-62
MOLT-4 = test system: MOLT-4
HOP-92 = test system: HOP-92
SF-539 = test system: SF-539
COLO 205 = test system: COLO 205
OVCAR-3 = test system: OVCAR-3
HT-29 = test system: HT-29
OVCAR-5 = test system: OVCAR-5
UACC-257 = test system: UACC-257
PC-3 = test system: PC-3
T47D = test system: T47D
MDA-N = test system: MDA-N

Row | Compound | GI50 (RPMI-8226) | GI50 (786-0) | GI50 (SK-MEL-2) | GI50 (NCI-H460) | GI50 (SK-OV-3) | GI50 (ACHN) | GI50 (HCT-116) | GI50 (SN12C) | GI50 (UACC-62) | GI50 (MOLT-4) | GI50 (HOP-92) | GI50 (SF-539) | GI50 (COLO 205) | GI50 (OVCAR-3) | GI50 (HT-29) | GI50 (OVCAR-5) | GI50 (UACC-257) | GI50 (PC-3) | GI50 (T47D) | GI50 (MDA-N)
1 | CC(=O)NC(CCCNC(=O)OCc1ccccc1)C(=O)NCc1ccccc1 (configuration not stated) | > 100 µM (inactive) | > 100 µM (inactive) | > 100 µM (inactive) | > 100 µM (inactive) | > 100 µM (inactive) | > 100 µM (inactive) | > 100 µM (inactive) | > 100 µM (inactive) | > 100 µM (inactive) | > 100 µM (inactive) | > 100 µM (inactive) | > 100 µM (inactive) | > 100 µM (inactive) | > 100 µM (inactive) | > 100 µM (inactive) | > 100 µM (inactive) | > 100 µM (inactive) |  |  | 
2 | C=C1CC2C(=O)N(c3ccccc3)C(=O)C2CC1n1[nH]c(=O)n(Cc2ccccc2)c1=O (configuration not stated) | > 100 µM (inactive) | > 100 µM (inactive) | > 100 µM (inactive) | > 100 µM (inactive) | > 100 µM (inactive) | > 100 µM (inactive) | > 100 µM (inactive) | > 100 µM (inactive) | > 100 µM (inactive) | > 100 µM (inactive) | > 100 µM (inactive) | > 100 µM (inactive) | > 100 µM (inactive) | > 100 µM (inactive) | > 100 µM (inactive) | > 100 µM (inactive) | > 100 µM (inactive) |  |  | 
3 | c1ccc(CSc2nc(N3CCCCC3)c3cn[nH]c3n2)cc1 | 26.6 µM (inactive) | 25.2 µM (inactive) | 16.2 µM (inactive) | 22.8 µM (inactive) | 36.6 µM (inactive) | 27.2 µM (inactive) | 19.2 µM (inactive) | 19.7 µM (inactive) | 15.4 µM (inactive) | 49.1 µM (inactive) | 21.3 µM (inactive) | 18.4 µM (inactive) | 23 µM (inactive) | 24.5 µM (inactive) | 31.8 µM (inactive) | 27.9 µM (inactive) | 18 µM (inactive) | 22.5 µM (inactive) | 21.9 µM (inactive) | 
4 | Cc1c(/C=N\NC(=S)N(C)CCN(C)C(=S)N/N=C\c2c(C)n(C)n(-c3ccccc3)c2=O)c(=O)n(-c2ccccc2)n1C |  | > 100 µM (inactive) | > 100 µM (inactive) | > 100 µM (inactive) | > 100 µM (inactive) | > 100 µM (inactive) | > 100 µM (inactive) |  | > 100 µM (inactive) | > 100 µM (inactive) | > 100 µM (inactive) | > 100 µM (inactive) | > 100 µM (inactive) | > 100 µM (inactive) | > 100 µM (inactive) | > 100 µM (inactive) | > 100 µM (inactive) | > 100 µM (inactive) | > 100 µM (inactive) | 
5 | COc1ccc(S(=O)(=O)N/N=C(\C)CN2C(=O)c3ccccc3C2=O)cc1OC | > 100 µM (inactive) | > 100 µM (inactive) | > 100 µM (inactive) | > 100 µM (inactive) | > 100 µM (inactive) | > 100 µM (inactive) | > 100 µM (inactive) | > 100 µM (inactive) | > 100 µM (inactive) | > 100 µM (inactive) | > 100 µM (inactive) | > 100 µM (inactive) | > 100 µM (inactive) | > 100 µM (inactive) | > 100 µM (inactive) | > 100 µM (inactive) | > 100 µM (inactive) |  |  | 
6 | COc1cc(Br)c(OC)c2c(OC)cc(C)cc12 | 54.5 µM (inactive) | 75.7 µM (inactive) | > 100 µM (inactive) | > 100 µM (inactive) | > 100 µM (inactive) | > 100 µM (inactive) | > 100 µM (inactive) | > 100 µM (inactive) | > 100 µM (inactive) | 20 µM (inactive) |  | > 100 µM (inactive) | > 100 µM (inactive) | > 100 µM (inactive) | 67.8 µM (inactive) | > 100 µM (inactive) | > 100 µM (inactive) | 44.6 µM (inactive) | 54.5 µM (inactive) | 
7 | N/N=C(\c1nc2ccc(Cl)cc2nc1O)C(O)c1ccc(Cl)c(Cl)c1 (configuration not stated) | > 100 µM (inactive) | 80.7 µM (inactive) | > 100 µM (inactive) | > 100 µM (inactive) | > 100 µM (inactive) | > 100 µM (inactive) | 48.1 µM (inactive) | > 100 µM (inactive) | > 100 µM (inactive) | > 100 µM (inactive) | > 100 µM (inactive) | > 100 µM (inactive) | 88.3 µM (inactive) | > 100 µM (inactive) | > 100 µM (inactive) | > 100 µM (inactive) | > 100 µM (inactive) |  |  | 
8 | O=C(CNc1cccc([N+](=O)[O-])c1)Nn1c(-c2ccccc2)nc2ccccc2c1=O | 0.478 µM (active) | 0.399 µM (active) |  | 0.555 µM (active) | 0.573 µM (active) | 1.4 µM (inactive) | 0.508 µM (active) | 0.508 µM (active) | 0.212 µM (active) | 0.246 µM (active) |  | 1.97 µM (inactive) | 1.43 µM (inactive) | 2.38 µM (inactive) | 0.312 µM (active) | 1.77 µM (inactive) | 2.15 µM (inactive) | 0.543 µM (active) | 2.17 µM (inactive) | 
9 | O=c1/c(=C/c2ccco2)sc2nc3ccccc3n12 | > 10 µM (inactive) | > 10 µM (inactive) | > 10 µM (inactive) | > 10 µM (inactive) | > 100 µM (inactive) | > 10 µM (inactive) | > 10 µM (inactive) | > 10 µM (inactive) | > 10 µM (inactive) | > 10 µM (inactive) | > 10 µM (inactive) | > 10 µM (inactive) | > 100 µM (inactive) | > 10 µM (inactive) | > 10 µM (inactive) | > 10 µM (inactive) | > 10 µM (inactive) |  |  | 
10 | COC(=O)CC[C@@H](NC(=O)C(C)NC(=O)COC1C(O)C(COC(=O)CCCCCCCCCCNC(=O)c2ccc([N+](=O)[O-])c3[nH]c4cc(Br)ccc4c(=O)c23)OC(OCc2ccccc2)C1NC(C)=O)C(N)=O (some centres not stated) | 39.7 µM (inactive) | > 100 µM (inactive) | 95.1 µM (inactive) | 57.3 µM (inactive) | > 100 µM (inactive) | > 100 µM (inactive) | > 100 µM (inactive) | > 100 µM (inactive) | 65.8 µM (inactive) | 70.3 µM (inactive) | 37.1 µM (inactive) | > 100 µM (inactive) | 96.6 µM (inactive) | 25.7 µM (inactive) | > 100 µM (inactive) | 37.3 µM (inactive) | > 100 µM (inactive) |  |  | 
11 | Cc1cc(-c2nc3ccccc3s2)ccc1NS(=O)(=O)O | > 4.65 µM (inactive) | > 8.85 µM (inactive) |  |  | > 33.5 µM (inactive) | > 7.78 µM (inactive) | > 4.65 µM (inactive) | > 5.92 µM (inactive) | > 12.2 µM (inactive) | 4.73 µM (inactive) |  | 0.0508 µM (active) | > 4.65 µM (inactive) |  | > 4.65 µM (inactive) | > 4.65 µM (inactive) | > 6.43 µM (inactive) |  |  | > 6.04 µM (inactive)
